Results as given in publication PMC6234689 (International Journal of Retina and Vitreous, 2018).

Assays:
rabbit retina [1] = assay: Fundus imaging after intravitreal injection; format: in vivo, New Zealand rabbits; conditions: intravitreal 40 µg/0.05 ml, observational period of 7 days
Method: (§1) Baseline electroretinogram (ERG) was obtained for rabbits prior the intravitreal injection as the method described below. […] The effective dose was calculated from the previous study performed in our lab.
Following Electroretinogram (ERG) study, rabbit retina was focused and fundus images of both eyes were recorded using streampix software using MICRON III rodent imaging system (Phoenix Lab, USA) after subjecting them for ERG.

in vivo = conditions: New Zealand, rabbit, 40 µg
rabbit retina [2] = conditions: intravitreal 40 µg/50 µL, 24, 48, 72 and 168 h
Method: as §1

[3] = test system: progression of retinopathy; parameters: method as in PMID 9726242; conditions: EUCLID Study, diabetic patients; cited from earlier work
[4] = rabbit, intravitreal 40 µg/50 µL
[5] = Stability of intravitreal formulation after thermal sterilization by autoclaving; format: physicochemical; conditions: 0.08% w/v in sterile saline, concentration before and after autoclaving
Source text: After checking it for pH, it was filled, sealed in glass ampoules and subjected for autoclaving.

NCCCC[C@H](N[C@@H](CCc1ccccc1)C(=O)O)C(=O)N1CCC[C@H]1C(=O)O [lisinopril]
morphological changes in the retina on fundus images (rabbit retina [1]): no significant morphological changes | half-life (in vivo; in vivo): 12.6 h | half-life (in vivo; vitreous humour): 41.5 h | 'a' and 'b' wave amplitude of ERG compared to baseline (rabbit retina [2]): No changes were observed | reduction of the risk of progression of retinopathy [3]: approximately 50% | lisinopril concentration in retina-choroid (highest) ([4]; at 1 h): 7 µg | lisinopril concentration in the vitreous humour (highest) ([4]; at 1 h): 14.52 µg | maximum concentration in sclera ([4]; at 2 h): 6.6 µg | stability of formulation after thermal sterilization by autoclaving [5]: stable
